Measurements reported in ChEMBL document CHEMBL1130059, “Neurotrophic 3,9-bis[(alkylthio)methyl]-and-bis(alkoxymethyl)-K-252a derivatives” (J Med Chem, 1997).

Experiments:
[1] = biological target: T1, Choline O-acetyltransferase (Rattus norvegicus) (UniProt P32738); test: Neurotrophic activity as measured by the ability to enhance basal forebrain choline acetyl transferase at 250 nM; format: functional
T1 sequence (whole entry): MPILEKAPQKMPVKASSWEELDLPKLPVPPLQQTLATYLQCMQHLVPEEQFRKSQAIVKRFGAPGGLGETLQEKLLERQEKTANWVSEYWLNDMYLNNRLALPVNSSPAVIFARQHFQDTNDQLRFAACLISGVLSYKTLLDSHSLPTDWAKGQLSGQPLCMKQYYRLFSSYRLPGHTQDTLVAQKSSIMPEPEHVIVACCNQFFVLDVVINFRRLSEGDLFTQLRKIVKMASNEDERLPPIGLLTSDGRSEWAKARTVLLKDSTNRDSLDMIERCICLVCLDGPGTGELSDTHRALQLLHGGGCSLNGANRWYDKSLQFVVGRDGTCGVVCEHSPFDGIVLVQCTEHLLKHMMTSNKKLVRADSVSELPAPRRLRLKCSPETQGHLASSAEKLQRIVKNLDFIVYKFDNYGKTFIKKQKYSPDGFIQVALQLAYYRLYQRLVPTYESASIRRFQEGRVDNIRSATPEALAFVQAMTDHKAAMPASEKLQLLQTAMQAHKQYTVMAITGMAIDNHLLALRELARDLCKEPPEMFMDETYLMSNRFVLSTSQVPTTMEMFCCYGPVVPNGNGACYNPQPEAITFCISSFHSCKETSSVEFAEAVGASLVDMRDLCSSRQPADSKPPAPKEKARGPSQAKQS

[2] = biological target: T1, Choline O-acetyltransferase (Rattus norvegicus); test: Neurotrophic activity as measured by the ability to enhance basal forebrain choline acetyl transferase at 50 nM; format: functional
[3] = biological target: T1, Choline O-acetyltransferase (Rattus norvegicus); test: Neurotrophic activity as measured by the ability to enhance embryonic rat spinal cord choline acetyl transferase at 300 nM; format: functional
[4] = biological target: T1, Choline O-acetyltransferase (Rattus norvegicus); test: Neurotrophic activity as measured by the ability to enhance embryonic rat spinal cord choline acetyl transferase at 30 nM; format: functional
[5] = biological target: High affinity nerve growth factor receptor (Homo sapiens, UniProt P04629); test: Ability to inhibit human trk A tyrosine kinase expressed in baculovirus using ELISA based enzyme assay was determined
[6] = biological target: cAMP-dependent protein kinase alpha-catalytic subunit (Oryctolagus cuniculus, UniProt Q95J97); test: Inhibition of cAMP dependent Protein kinase A of rabbit Skeletal Muscle.
[7] = biological target: Myosin light chain kinase, smooth muscle (Gallus gallus, UniProt P11799); test: Inhibition of Smooth muscle myosin light chain kinase of chicken gizzard
Protein kinase C (PKC) = test: Inhibition of Protein kinase C of Rat brain

Chain of High affinity nerve growth factor receptor (P04629 whole entry): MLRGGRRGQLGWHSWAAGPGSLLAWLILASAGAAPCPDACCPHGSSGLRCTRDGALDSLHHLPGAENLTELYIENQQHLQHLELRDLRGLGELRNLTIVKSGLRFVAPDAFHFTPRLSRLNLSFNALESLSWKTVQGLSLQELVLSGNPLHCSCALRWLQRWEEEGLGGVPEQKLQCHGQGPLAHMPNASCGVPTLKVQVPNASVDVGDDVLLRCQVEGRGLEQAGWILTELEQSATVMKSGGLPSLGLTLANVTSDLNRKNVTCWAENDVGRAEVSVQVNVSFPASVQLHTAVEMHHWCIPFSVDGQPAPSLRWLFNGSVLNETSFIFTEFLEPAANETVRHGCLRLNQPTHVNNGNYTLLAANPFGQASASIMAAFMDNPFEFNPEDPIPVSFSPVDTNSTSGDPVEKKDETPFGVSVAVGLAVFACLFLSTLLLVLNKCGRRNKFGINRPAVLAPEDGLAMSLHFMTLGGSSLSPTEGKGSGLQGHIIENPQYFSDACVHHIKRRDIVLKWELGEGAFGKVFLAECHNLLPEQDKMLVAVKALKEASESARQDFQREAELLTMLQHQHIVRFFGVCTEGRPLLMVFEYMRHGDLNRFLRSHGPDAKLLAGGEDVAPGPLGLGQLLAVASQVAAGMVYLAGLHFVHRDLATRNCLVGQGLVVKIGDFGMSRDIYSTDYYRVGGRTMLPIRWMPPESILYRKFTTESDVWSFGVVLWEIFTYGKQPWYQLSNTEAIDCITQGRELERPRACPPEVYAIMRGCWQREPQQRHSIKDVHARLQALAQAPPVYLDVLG
Chain of Myosin light chain kinase, smooth muscle (P11799 whole entry): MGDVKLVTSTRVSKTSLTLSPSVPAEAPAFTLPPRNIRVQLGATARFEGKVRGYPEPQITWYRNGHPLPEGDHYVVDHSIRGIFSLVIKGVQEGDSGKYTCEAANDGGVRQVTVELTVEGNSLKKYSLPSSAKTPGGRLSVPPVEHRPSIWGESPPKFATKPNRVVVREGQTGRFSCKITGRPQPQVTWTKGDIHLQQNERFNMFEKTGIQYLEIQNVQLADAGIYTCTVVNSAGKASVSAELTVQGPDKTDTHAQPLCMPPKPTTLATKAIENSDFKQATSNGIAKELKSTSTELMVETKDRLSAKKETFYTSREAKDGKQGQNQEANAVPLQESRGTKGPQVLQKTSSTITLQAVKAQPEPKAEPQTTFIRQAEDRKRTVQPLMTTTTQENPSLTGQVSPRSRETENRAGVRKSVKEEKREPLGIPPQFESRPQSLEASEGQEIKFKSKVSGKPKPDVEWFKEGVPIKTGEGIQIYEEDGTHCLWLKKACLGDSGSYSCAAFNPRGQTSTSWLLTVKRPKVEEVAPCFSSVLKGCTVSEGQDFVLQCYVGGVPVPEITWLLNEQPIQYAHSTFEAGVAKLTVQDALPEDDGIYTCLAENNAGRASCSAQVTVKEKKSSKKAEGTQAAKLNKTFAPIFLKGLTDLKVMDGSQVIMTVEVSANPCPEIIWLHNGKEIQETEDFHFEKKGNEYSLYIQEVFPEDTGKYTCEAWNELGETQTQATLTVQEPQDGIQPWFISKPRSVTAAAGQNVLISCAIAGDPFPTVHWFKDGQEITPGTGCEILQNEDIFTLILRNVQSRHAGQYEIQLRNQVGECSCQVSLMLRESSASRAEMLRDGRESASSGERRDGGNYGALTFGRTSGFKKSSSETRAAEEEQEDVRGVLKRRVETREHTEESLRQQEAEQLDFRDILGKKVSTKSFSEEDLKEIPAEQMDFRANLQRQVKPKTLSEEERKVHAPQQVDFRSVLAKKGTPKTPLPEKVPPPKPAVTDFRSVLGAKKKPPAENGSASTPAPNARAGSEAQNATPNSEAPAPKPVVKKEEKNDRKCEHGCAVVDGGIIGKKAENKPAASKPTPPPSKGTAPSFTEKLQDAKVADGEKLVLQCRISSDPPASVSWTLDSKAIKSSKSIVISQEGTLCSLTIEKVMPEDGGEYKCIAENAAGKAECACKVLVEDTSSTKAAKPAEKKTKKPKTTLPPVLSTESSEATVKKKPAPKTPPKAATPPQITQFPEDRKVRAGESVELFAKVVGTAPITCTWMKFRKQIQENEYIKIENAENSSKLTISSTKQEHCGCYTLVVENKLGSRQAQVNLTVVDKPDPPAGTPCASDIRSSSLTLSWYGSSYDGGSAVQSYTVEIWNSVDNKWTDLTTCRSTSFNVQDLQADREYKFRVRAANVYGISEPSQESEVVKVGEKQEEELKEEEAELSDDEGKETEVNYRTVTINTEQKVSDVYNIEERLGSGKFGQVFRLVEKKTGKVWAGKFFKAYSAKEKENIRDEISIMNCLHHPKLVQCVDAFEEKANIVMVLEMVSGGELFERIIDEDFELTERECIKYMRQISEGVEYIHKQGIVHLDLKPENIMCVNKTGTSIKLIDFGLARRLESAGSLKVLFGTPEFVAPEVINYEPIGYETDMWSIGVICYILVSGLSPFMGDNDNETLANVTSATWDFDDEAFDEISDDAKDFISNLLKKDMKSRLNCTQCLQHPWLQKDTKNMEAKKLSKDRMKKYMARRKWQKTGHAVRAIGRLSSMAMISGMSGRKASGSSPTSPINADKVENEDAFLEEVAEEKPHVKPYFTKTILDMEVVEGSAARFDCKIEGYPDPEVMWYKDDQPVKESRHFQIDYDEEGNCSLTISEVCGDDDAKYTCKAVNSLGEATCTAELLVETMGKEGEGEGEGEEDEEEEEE

Compound | Control [1] | Control [2] | Control [3] | Control [4] | IC50 [5] | IC50 [6] | IC50 [7] | IC50 (Protein kinase C (PKC))
COCc1ccc2c(c1)c1c3c(c4c5cc(COC)ccc5n5c4c1n2C1C[C@](O)(C(=O)OC)[C@]5(C)O1)CNC3=O | 340% | 168% | 218% | 193% | 270 nM | – | – | –
COC(=O)[C@@]1(O)C[C@H]2O[C@]1(C)n1c3ccccc3c3c4c(c5c6ccccc6n2c5c31)C(=O)NC4 [K-252A] | 325% | 148% | 186% | < 120% | – | 16 nM | 20 nM | –
COC(=O)[C@@]1(O)CC2O[C@]1(C)n1c3ccc(CSCCN(C)C)cc3c3c4c(c5c6cc(CSCCN(C)C)ccc6n2c5c31)C(=O)NC4 | 158% | < 120% | 208% | < 120% | – | – | – | –
CCCSCc1ccc2c(c1)c1c3c(c4c5cc(CSCCC)ccc5n5c4c1n2C1C[C@](O)(C(=O)OC)[C@]5(C)O1)CNC3=O | 180% | < 120% | 315% | < 120% | > 1000 nM | – | – | –
CCSCc1ccc2c(c1)c1c3c(c4c5cc(CSCC)ccc5n5c4c1n2C1C[C@](O)(C(=O)OC)[C@]5(C)O1)CNC3=O | 363% | 143% | 280% | 140% | > 1000 nM | > 10000 nM | > 10000 nM | 16300 nM
COC(=O)[C@@]1(O)CC2O[C@]1(C)n1c3ccc(CO)cc3c3c4c(c5c6cc(CO)ccc6n2c5c31)C(=O)NC4 | – | – | < 120% | < 120% | – | – | – | –
COC(=O)[C@@]1(O)CC2O[C@]1(C)n1c3ccc(CSC(C)C)cc3c3c4c(c5c6cc(CSC(C)C)ccc6n2c5c31)C(=O)NC4 | – | 224% | 289% | < 120% | > 1000 nM | – | – | –
CCCCSCc1ccc2c(c1)c1c3c(c4c5cc(CSCCCC)ccc5n5c4c1n2C1C[C@](O)(C(=O)OC)[C@]5(C)O1)CNC3=O | 200% | 143% | 289% | < 120% | > 1000 nM | – | – | –
C=CCSCc1ccc2c(c1)c1c3c(c4c5cc(CSCC=C)ccc5n5c4c1n2C1C[C@](O)(C(=O)OC)[C@]5(C)O1)CNC3=O | 191% | < 120% | 302% | < 120% | > 1000 nM | – | – | –
CCOCc1ccc2c(c1)c1c3c(c4c5cc(COCC)ccc5n5c4c1n2C1C[C@](O)(C(=O)OC)[C@]5(C)O1)CNC3=O | 237% | < 120% | 188% | 153% | 210 nM | – | – | –
